In the supplement of paper PMC10307832:

Assays:
Experiment in all cases: relative viability (nuclei count vs DMSO), 5 days (fraction); higher = more cells survive
[1] = compound: Cc1ccc2nc(NCCN)c3ncc(C)n3c2c1 + Cc1nc(Nc2ncc(C(=O)Nc3c(C)cccc3Cl)s2)cc(N2CCN(CCO)CC2)n1 [Dasatinib] (partner 0.075 µM)
How it was run: (§1)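 One day after seeding in 1536-well plates, lung cancer cell lines were dosed by pin tool. Dosing was either single-drug or a fixed anchor-drug dose plus five library-drug doses (not always all listed) in √10 steps. After 5 days, nuclei were stained in one fix-and-stain step and counted on 4× images, and relative viability is the nuclei count of treated wells over that of vehicle wells, given as the median of duplicate plates.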

[2] = compound: O=C(/C=C/c1ccccc1)NC(NC(=S)Nc1cccc2cccnc12)C(Cl)(Cl)Cl [Salubrinal] + CC(C)C[C@H](NC(=O)[C@H](Cc1ccccc1)NC(=O)c1cnccn1)B(O)O [Bortezomib] (partner 0.002 µM)
How it was run: as §1

[3] = compound: O=C(/C=C/c1ccccc1)NC(NC(=S)Nc1cccc2cccnc12)C(Cl)(Cl)Cl [Salubrinal] + Cc1cc(Nc2cc(N3CCN(C)CC3)nc(Sc3ccc(NC(=O)C4CC4)cc3)n2)n[nH]1 [Tozasertib] (partner 0.1 µM)
How it was run: as §1

[4] = compound: O=C(/C=C/c1ccccc1)NC(NC(=S)Nc1cccc2cccnc12)C(Cl)(Cl)Cl [Salubrinal] + Nc1nc2[nH]cc(CCc3ccc(C(=O)N[C@@H](CCC(=O)O)C(=O)O)cc3)c2c(=O)[nH]1 [Pemetrexed] (partner 0.2 µM)
How it was run: as §1

Row | Cell Line | relative viability ([1]; first compound 0.04 µM) | relative viability ([1]; first compound 0.1265 µM) | relative viability ([1]; first compound 0.4 µM) | relative viability ([1]; first compound 1.265 µM) | relative viability ([1]; first compound 4 µM) | relative viability ([2]; first compound 0.08 µM) | relative viability ([2]; first compound 0.253 µM) | relative viability ([2]; first compound 0.8 µM) | relative viability ([2]; first compound 2.53 µM) | relative viability ([2]; first compound 8 µM) | relative viability ([3]; first compound 0.08 µM) | relative viability ([3]; first compound 0.253 µM) | relative viability ([3]; first compound 0.8 µM) | relative viability ([3]; first compound 2.53 µM) | relative viability ([3]; first compound 8 µM) | relative viability ([4]; first compound 0.08 µM) | relative viability ([4]; first compound 0.253 µM) | relative viability ([4]; first compound 0.8 µM) | relative viability ([4]; first compound 2.53 µM) | relative viability ([4]; first compound 8 µM)
1 | NCI-H838 | 0.347 | 0.336 | 0.251 | 0.231 | 0.261 | 0.82 | 0.749 | 0.983 | 0.911 | 0.608 | 0.292 | 0.246 | 0.291 | 0.25 | 0.259 | 0.253 | 0.231 | 0.257 | 0.267 | 0.23
2 | NCI-H1355 | 0.712 | 0.728 | 0.678 | 0.667 | 0.638 | 1.32 | 1.15 | 1.2 | 1.32 | 1.22 | 0.697 | 0.519 | 0.524 | 0.498 | 0.477 | 1.11 | 1.02 | 1.1 | 1.03 | 1.09
3 | NCI-H1437 | 0.379 | 0.419 | 0.438 | 0.399 | 0.351 | 0.667 | 0.474 | 0.68 | 0.535 | 0.465 | 0.415 | 0.362 | 0.418 | 0.404 | 0.373 | 0.413 | 0.273 | 0.292 | 0.322 | 0.297
4 | NCI-H1650 | 0.33 | 0.312 | 0.273 | 0.282 | 0.226 | 0.217 | 0.227 | 0.256 | 0.173 | 0.243 | 0.419 | 0.349 | 0.336 | 0.327 | 0.407 | 0.354 | 0.3 | 0.398 | 0.383 | 0.376
5 | NCI-H1651 | 0.472 | 0.441 | 0.422 | 0.395 | 0.392 | 0.972 | 0.925 | 0.994 | 0.925 | 0.921 | 0.711 | 0.639 | 0.776 | 0.608 | 0.734 | 0.655 | 0.393 | 0.781 | 0.604 | 0.6
6 | NCI-H1666 | 0.788 | 0.781 | 0.849 | 0.604 | 0.77 | 0.858 | 0.732 | 0.746 | 0.776 | 0.984 | 0.646 | 0.587 | 0.611 | 0.553 | 0.608 | 0.837 | 0.804 | 0.989 | 0.864 | 0.845
7 | NCI-H1734 | 0.515 | 0.456 | 0.474 | 0.447 | 0.409 | 0.9 | 0.941 | 1.11 | 0.969 | 0.981 | 0.304 | 0.256 | 0.294 | 0.274 | 0.268 | 0.423 | 0.454 | 0.41 | 0.427 | 0.409
8 | NCI-H1755 | 0.475 | 0.423 | 0.445 | 0.359 | 0.393 | 1.06 | 0.968 | 1.05 | 1 | 0.945 | 0.573 | 0.61 | 0.611 | 0.457 | 0.507 | 0.379 | 0.513 | 0.401 | 0.638 | 0.395
9 | NCI-H1915 | 0.334 | 0.328 | – | 0.291 | 0.25 | 0.98 | 0.56 | 1.09 | 1.03 | 0.954 | 0.484 | 0.291 | 0.337 | 0.387 | 0.432 | 0.477 | – | 0.562 | 0.495 | 0.466
10 | NCI-H1975 | 0.409 | 0.387 | 0.347 | 0.359 | 0.304 | 0.419 | 0.362 | 0.353 | 0.344 | 0.355 | 0.989 | 0.621 | 0.785 | 0.517 | 0.186 | 0.321 | 0.283 | 0.337 | 0.318 | 0.28
11 | NCI-H1993 | 0.463 | 0.651 | 0.533 | 0.497 | 0.539 | 1.09 | 1.05 | 1.31 | 1.01 | 1.28 | 0.653 | 0.577 | 0.597 | 0.674 | 0.649 | 0.666 | 0.596 | 0.524 | – | 0.573
12 | NCI-H2009 | 0.391 | 0.284 | 0.313 | 0.283 | 0.263 | 1.07 | 1.05 | 1.01 | 1.01 | 0.771 | 0.762 | 0.733 | 0.774 | 0.718 | 0.637 | 1.08 | 0.928 | 1.08 | 1.02 | 0.965
13 | NCI-H2023 | 0.711 | 0.565 | 0.608 | 0.548 | 0.388 | 1.2 | 1.03 | 0.967 | 1.02 | 0.858 | 0.323 | 0.286 | 0.323 | 0.236 | 0.182 | 0.265 | 0.198 | 0.292 | 0.225 | 0.178
